{"source": "patent US20210322582A1", "about": "“RADIOACTIVE IMIDAZOTHIADIAZOLE DERIVATIVE COMPOUND” (Nihon Medi-Physics Co., Ltd., priority 2018, published 2021)", "system": "HT-29-transplanted tumor", "experiment": "Biodistribution of [^111In]ITDA3 in HT-29 cancer-bearing mouse", "type": "in vivo", "conditions": "for Accumulation of radioactivity: Blood / Accumulation of radioactivity: Brain / Accumulation of radioactivity: HT-29 tumor / Accumulation of radioactivity: Heart / Accumulation of radioactivity: Intestines / Accumulation of radioactivity: Kidney / Accumulation of radioactivity: Liver / Accumulation of radioactivity: Lungs / Accumulation of radioactivity: Muscle / Accumulation of radioactivity: Pancreas / Accumulation of radioactivity: Spleen / Accumulation of radioactivity: Stomach / Tumor/blood / Tumor/muscle: HT-29 mouse", "experimental": "HT-29 cells and MDA-MB-231 cells (5×10^6 cells/mouse) were subcutaneously inoculated into the left shoulders of 5-week old male BALB/c nude mice, respectively. A saline solution (100 μL) in which[^111In]ITDA3 (40 kBq) had been dissolved was administered to each of the cancer-bearing mice (n=5) via the tail vein. The HT-29 cancer-bearing mice were slaughtered after the lapse of 1, 4, and 24 hours from the administration, the MDA-MB-231 cancer-bearing mouse was slaughtered after the lapse of 24 hours from the administration, and the blood, spleen, pancreas, stomach, intestines, kidney, liver, heart, lungs, brain, HT-29 or MDA-MB-231-transplanted tumor, and muscle were recovered from each of the mice. The weight of each organ was measured, and the amount of radioactivity in each organ was measured by using a gamma counter. The accumulation of radioactivity in each organ except for stomach was expressed by % ID (injected dose)/g obtained by dividing the ratio of the amount of radioactivity of each organ to the administered amount of radioactivity by the organ weight. The stomach was expressed by % ID (injected dose)."}
{"compound": "NS(=O)(=O)c1nn2cc(-c3ccc(NC(=O)CCC(C(=O)O)N4CCN(CC(=O)[O-])CCN(CC(=O)[O-])CCN(CC(=O)[O-])CC4)cc3)nc2s1.[111In+3]", "note": "(centres unmarked) [[^111In]ITDA3]", "values": [{"measurement": "Accumulation of radioactivity: Blood", "setting": "1 hour after administration", "value": "0.09 ± 0.01", "unit": "% ID/g"}, {"measurement": "Accumulation of radioactivity: Brain", "setting": "1 hour after administration", "value": "0.27 ± 0.05", "unit": "% ID/g"}, {"measurement": "Accumulation of radioactivity: HT-29 tumor", "setting": "1 hour after administration", "value": "1.60 ± 0.16", "unit": "% ID/g"}, {"measurement": "Accumulation of radioactivity: Heart", "setting": "1 hour after administration", "value": "6.91 ± 0.32", "unit": "% ID/g"}, {"measurement": "Accumulation of radioactivity: Intestines", "setting": "1 hour after administration", "value": "8.33 ± 0.44", "unit": "% ID/g"}, {"measurement": "Accumulation of radioactivity: Kidney", "setting": "1 hour after administration", "value": "95.81 ± 9.44", "unit": "% ID/g"}, {"measurement": "Accumulation of radioactivity: Liver", "setting": "1 hour after administration", "value": "8.42 ± 1.42", "unit": "% ID/g"}, {"measurement": "Accumulation of radioactivity: Lungs", "setting": "1 hour after administration", "value": "3.58 ± 0.86", "unit": "% ID/g"}, {"measurement": "Accumulation of radioactivity: Muscle", "setting": "1 hour after administration", "value": "2.47 ± 0.45", "unit": "% ID/g"}, {"measurement": "Accumulation of radioactivity: Pancreas", "setting": "1 hour after administration", "value": "14.89 ± 3.20", "unit": "% ID/g"}, {"measurement": "Accumulation of radioactivity: Spleen", "setting": "1 hour after administration", "value": "0.13 ± 0.20", "unit": "% ID/g"}, {"measurement": "Accumulation of radioactivity: Stomach", "setting": "1 hour after administration", "value": "1.80 ± 0.27", "unit": "% ID"}, {"measurement": "Tumor/blood", "setting": "1 hour after administration", "value": "18.89 ± 2.68"}, {"measurement": "Tumor/muscle", "setting": "1 hour after administration", "value": "0.66 ± 0.09"}, {"measurement": "Accumulation of radioactivity: Blood", "setting": "4 hours after administration", "value": "0.06 ± 0.01", "unit": "% ID/g"}, {"measurement": "Accumulation of radioactivity: Brain", "setting": "4 hours after administration", "value": "0.26 ± 0.04", "unit": "% ID/g"}, {"measurement": "Accumulation of radioactivity: HT-29 tumor", "setting": "4 hours after administration", "value": "1.71 ± 0.28", "unit": "% ID/g"}, {"measurement": "Accumulation of radioactivity: Heart", "setting": "4 hours after administration", "value": "2.87 ± 0.36", "unit": "% ID/g"}, {"measurement": "Accumulation of radioactivity: Intestines", "setting": "4 hours after administration", "value": "7.2 ± 1.53", "unit": "% ID/g"}, {"measurement": "Accumulation of radioactivity: Kidney", "setting": "4 hours after administration", "value": "80.09 ± 5.11", "unit": "% ID/g"}, {"measurement": "Accumulation of radioactivity: Liver", "setting": "4 hours after administration", "value": "6.51 ± 1.50", "unit": "% ID/g"}, {"measurement": "Accumulation of radioactivity: Lungs", "setting": "4 hours after administration", "value": "2.24 ± 0.44", "unit": "% ID/g"}, {"measurement": "Accumulation of radioactivity: Muscle", "setting": "4 hours after administration", "value": "1.88 ± 0.13", "unit": "% ID/g"}, {"measurement": "Accumulation of radioactivity: Pancreas", "setting": "4 hours after administration", "value": "6.2 ± 0.78", "unit": "% ID/g"}, {"measurement": "Accumulation of radioactivity: Spleen", "setting": "4 hours after administration", "value": "0.04 ± 0.03", "unit": "% ID/g"}, {"measurement": "Accumulation of radioactivity: Stomach", "setting": "4 hours after administration", "value": "0.83 ± 0.11", "unit": "% ID"}, {"measurement": "Tumor/blood", "setting": "4 hours after administration", "value": "28.6 ± 3.24"}, {"measurement": "Tumor/muscle", "setting": "4 hours after administration", "value": "0.92 ± 0.15"}, {"measurement": "Accumulation of radioactivity: Blood", "setting": "24 hours after administration", "value": "0.06 ± 0.01", "unit": "% ID/g"}, {"measurement": "Accumulation of radioactivity: Brain", "setting": "24 hours after administration", "value": "0.33 ± 0.07", "unit": "% ID/g"}, {"measurement": "Accumulation of radioactivity: HT-29 tumor", "setting": "24 hours after administration", "value": "3.02 ± 0.37", "unit": "% ID/g"}, {"measurement": "Accumulation of radioactivity: Heart", "setting": "24 hours after administration", "value": "2.00 ± 0.38", "unit": "% ID/g"}, {"measurement": "Accumulation of radioactivity: Intestines", "setting": "24 hours after administration", "value": "11.11 ± 0.85", "unit": "% ID/g"}, {"measurement": "Accumulation of radioactivity: Kidney", "setting": "24 hours after administration", "value": "70.19 ± 9.28", "unit": "% ID/g"}, {"measurement": "Accumulation of radioactivity: Liver", "setting": "24 hours after administration", "value": "4.92 ± 1.01", "unit": "% ID/g"}, {"measurement": "Accumulation of radioactivity: Lungs", "setting": "24 hours after administration", "value": "1.20 ± 0.15", "unit": "% ID/g"}, {"measurement": "Accumulation of radioactivity: Muscle", "setting": "24 hours after administration", "value": "1.63 ± 0.79", "unit": "% ID/g"}, {"measurement": "Accumulation of radioactivity: Pancreas", "setting": "24 hours after administration", "value": "3.85 ± 0.68", "unit": "% ID/g"}, {"measurement": "Accumulation of radioactivity: Spleen", "setting": "24 hours after administration", "value": "0.08 ± 0.05", "unit": "% ID/g"}, {"measurement": "Accumulation of radioactivity: Stomach", "setting": "24 hours after administration", "value": "0.48 ± 0.04", "unit": "% ID"}, {"measurement": "Tumor/blood", "setting": "24 hours after administration", "value": "52.06 ± 6.11"}, {"measurement": "Tumor/muscle", "setting": "24 hours after administration", "value": "2.08 ± 0.67"}, {"measurement": "Amount of tumor accumulation compared with [^111In]ITDA1", "setting": "from Table 5", "value": "lower than that of [^111In]ITDA1"}, {"measurement": "Amounts of accumulation in normal tissues (in particular, pancreas, stomach, intestines, and lungs)", "setting": "from Table 5", "value": "small"}]}
